These are literature values, as cited in publication PMC4871733 (Nature chemical biology, 2016).

Some results are limits rather than exact numbers.

The conditions of series [1]: after 30 minute exposure.
For series [2] the following is noted: after 30 minute exposure. This is another data set of the same source.
The conditions of series [3]: after 30 minute exposure. This is another data set of the same source.
Test in series [4]: not given
This is another data set of the same source.

As to `Cn1c2cc([S+](C)[O-])sc2c2cnn(Cc3cccc(N)c3)c(=O)c21` (centres unmarked) [ML265], the Efflux ratio was 1.35. Moreover, the “Stability in human liver microsomes” value in series [1] is more than 90%. In addition, in series [2], the “Stability in mouse liver microsomes” value is given as more than 90%. Also, in series [3], the “Stability in rat liver microsomes” value is more than 90%. Moreover, the Aqueous kinetic solubility in series [4] is given as 79 µM.
